The target in the assay is T1, calcium receptor (CasR) (Homo sapiens, UniProt P41180).
T1 construct: expressed in transfected cells; host or cells: HEK 293
T1 sequence (P41180 20-1078): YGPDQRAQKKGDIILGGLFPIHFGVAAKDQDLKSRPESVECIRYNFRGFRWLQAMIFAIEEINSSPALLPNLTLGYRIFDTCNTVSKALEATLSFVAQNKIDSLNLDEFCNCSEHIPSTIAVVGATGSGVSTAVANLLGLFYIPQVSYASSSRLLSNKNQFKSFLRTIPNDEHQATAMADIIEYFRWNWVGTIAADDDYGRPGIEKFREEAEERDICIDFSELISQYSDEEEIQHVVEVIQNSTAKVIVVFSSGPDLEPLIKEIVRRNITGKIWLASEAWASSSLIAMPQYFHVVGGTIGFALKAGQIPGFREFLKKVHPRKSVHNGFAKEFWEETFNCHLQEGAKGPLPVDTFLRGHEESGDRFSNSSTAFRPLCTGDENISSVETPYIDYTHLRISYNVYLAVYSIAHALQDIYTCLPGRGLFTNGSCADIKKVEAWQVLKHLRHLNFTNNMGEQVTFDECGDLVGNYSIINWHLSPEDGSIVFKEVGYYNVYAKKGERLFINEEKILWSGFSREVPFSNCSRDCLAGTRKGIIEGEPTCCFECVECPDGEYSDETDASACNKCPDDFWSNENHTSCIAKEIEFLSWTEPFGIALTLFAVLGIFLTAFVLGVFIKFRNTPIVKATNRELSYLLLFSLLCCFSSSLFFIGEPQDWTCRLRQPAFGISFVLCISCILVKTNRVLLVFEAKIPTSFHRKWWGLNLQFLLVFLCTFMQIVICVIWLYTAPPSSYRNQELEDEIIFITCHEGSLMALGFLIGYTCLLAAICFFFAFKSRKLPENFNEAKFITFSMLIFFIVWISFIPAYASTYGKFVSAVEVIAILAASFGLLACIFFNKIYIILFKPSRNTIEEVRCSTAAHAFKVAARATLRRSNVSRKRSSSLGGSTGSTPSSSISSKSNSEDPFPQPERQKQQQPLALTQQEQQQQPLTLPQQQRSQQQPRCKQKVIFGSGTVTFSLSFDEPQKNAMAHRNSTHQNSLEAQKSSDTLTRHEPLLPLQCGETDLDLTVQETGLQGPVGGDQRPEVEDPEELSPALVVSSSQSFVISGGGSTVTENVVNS
The assay can be described thus: FLIPR Assay for Evaluating the Potency and Selectivity of Test Compounds. Conditions: HEK 293 cells expressing CasR; 30 minutes pre-incubation; stimulation by 1.7 mM Ca2+; read 42 seconds after stimulation. The assay is classed as cell-based. In outline: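 HEK293 cells expressing CasR, loaded with Fluo-4, washed in 10 mM HEPES, then preincubated 30 min with compound ([…] to 3 nM). Stimulated with 1.7 mM Ca2+ and fluorescence read at 42 s on FLIPR. IC50 from inhibition of the Ca2+-induced intracellular Ca2+ rise.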

The IC50 is the concentration needed to halve the response being measured. `O=c1c2c(C(F)(F)F)nccc2nc(-c2ncccc2C(F)F)n1CCc1ccccc1` [Example 80, 2-(3-(difluoromethyl)pyridin-2-yl)-3-phenethyl-5-(trifluoromethyl)pyrido[4,3-d]pyrimidin-4(3H)-one]: the half-maximal inhibitory concentration (IC50) was 300 nM. To `O=c1c2c(C(F)(F)F)nccc2nc(-c2ccccc2C(F)(F)F)n1CCC1CCCCC1` [Example 81, 3-(2-cyclohexylethyl)-5-(trifluoromethyl)-2-(2-(trifluoromethyl)phenyl)pyrido[4,3-d]pyrimidin-] belongs 7890 nM; to `O=c1c2c(C(F)(F)F)nccc2nc(-c2ncccc2C(F)(F)F)n1CCC1CCCCC1` [Example 82, 3-(2-cyclohexylethyl)-5-(trifluoromethyl)-2-(3-(trifluoromethyl)pyridin-2-yl)pyrido[4,3-d]pyrimidin-4(3H)-one], 2530 nM.

For the origin of these results see patent US7829572B2 (Pfizer Inc, priority 2006, dated 2010).
